Assay results published in the NIST ThermoML archive (doi:10.1021/je049556i).

Experiments:
[1] = 101 kPa, Liquid
[2] = xn = mol fraction of the nth substance listed; details: 101 kPa, Liquid

CCO [ethanol]
[1]
Details | mass density [kg/m3] | viscosity [mPa·s]
298.15 K | 785.06 | 1.083
303.15 K | 780.74 | 0.99
308.15 K | 776.48 | 0.895

CC1OC(C)OC(C)O1 (stereo unspecified) [2,4,6-trimethyl-1,3,5-trioxane] + CCO
[2]
Details | mass density, 298.15 K [kg/m3] | mass density, 303.15 K [kg/m3] | mass density, 308.15 K [kg/m3] | viscosity, 298.15 K [mPa·s] | viscosity, 303.15 K [mPa·s] | viscosity, 308.15 K [mPa·s]
x1 = 0.0372 | 802.48 | 798.21 | 793.84 | 1.071 | 0.979 | 0.886
x1 = 0.0801 | 820.65 | 816.3 | 811.97 | 1.059 | 0.966 | 0.876
x1 = 0.1299 | 839.52 | 835.19 | 830.81 | 1.045 | 0.952 | 0.866
x1 = 0.1885 | 859.12 | 854.68 | 850.28 | 1.031 | 0.938 | 0.855
x1 = 0.2589 | 879.57 | 875.01 | 870.45 | 1.016 | 0.924 | 0.844
x1 = 0.3433 | 900.45 | 895.77 | 890.94 | 1.003 | 0.912 | 0.835
x1 = 0.4485 | 922.04 | 917.27 | 912.16 | 0.994 | 0.903 | 0.828
x1 = 0.5823 | 944.05 | 939.04 | 933.74 | 0.995 | 0.904 | 0.829
x1 = 0.6816 | 957.34 | 952.18 | 946.76 | 1.006 | 0.915 | 0.837
x1 = 0.7582 | 966.15 | 960.83 | 955.25 | 1.022 | 0.929 | 0.849
x1 = 0.8003 | 970.54 | 965.15 | 959.44 | 1.033 | 0.939 | 0.857
x1 = 0.8452 | 974.98 | 969.45 | 963.6 | 1.048 | 0.951 | 0.868
x1 = 0.8932 | 979.38 | 973.8 | 967.86 | 1.065 | 0.967 | 0.881
x1 = 0.9446 | 983.9 | 978.26 | 972.13 | 1.088 | 0.986 | 0.897
x1 = 1 | 988.35 | 982.64 | 976.44 | 1.107 | 1.001 | 0.907
